{"source": "patent US6638968B1", "about": "“Use of prodigiosin for treating diabetes mellitus” (Korea Research Institute of Bioscience and Biotechnology, priority 2000, dated 2003)", "format_in_all_cases": "in vivo, mouse", "key": {"NOD mice [1]": {"system": "NOD mice", "assay": "Side effects of prodigiosin in NOD mice (body weight, mortality, pathological test of liver, kidney, lung)", "description": "Because of diabetes, NOD mice have their weight decrease and come to die in 2 weeks after symptoms of diabetes.\nFIG. 7 illustrates that the prodigiosin has no side effect.\nIn NOD mice receiving prodigiosin from 8 weeks to 24 weeks age, the negative effects of the prodigiosin were examined (FIG. 7). […] After their liver, kidney, and lung had been extracted from the prodigiosin-injected NOD mice, a pathological test was performed using the hematoxylinleosin staining."}, "NOD mice [2]": {"system": "NOD mice", "assay": "Insulitis: lymphocyte infiltration into pancreatic ducts, hematoxylin/eosin staining", "settings": "prodigiosin-injected NOD mice", "description": "In insulin-dependent diabetes mellitus, insulitis may be induced by lymphocyte infiltration into pancreatic ducts and destruction of beta cells thereby. Macrophages and T cells are the major infiltrating lymphocytes, and these immune cells destroy beta cells. The pancreas from both the prodigiosin-injected and the non-injected NOD mice were preserved in formalin and to preparation. After the hematoxylin/eosin staining, the lymphocyte infiltration level was measured. 1, 2, and 3 point were respectively given to 25, 50, and 75% of insulitis progression, and the average value of insulitis progression was calculated (FIG. 4). The NOD mice, not receiving prodigiosin, had more than 2 point, or over 50% of infiltration, while the infiltration level of the prodigiosin-injected mice was about 1 point, or under 20% of infiltration."}, "NOD mice [3]": {"system": "NOD mice", "assay": "Blood glucose of NOD mice (plasma, blood biochemical analyzer)", "settings": "prodigiosin-injected NOD mice, 10 mg/kg intraperitoneally", "description": "FIG. 3 illustrates decrease of the blood glucose by administration of prodigiosin. After we isolated plasma from NOD mouse, the blood glucose was measured with the blood biochemical analyzer (Cibacorning, USA).\nProdigiosin was intraperitoneally injected in 10 mg/kg from 8 weeks to 24 weeks of age, and the urine glucose was measured with uropaper (Eiken Chemical Co. Ltd., Japan) every week. In control group of NOD mice, not receiving prodigiosin, the urine glucose was first detected from 15 weeks of age, and at 24 weeks, 80% of the mice had the urine glucose detected (FIG. 2). […] Average blood glucose of non-prodigiosin-injected NOD mice was 500 mg/dl, which means diabetes mellitus crisis, and that of prodigiosin-injected NOD mice was 100 mg/dl, which means the normal condition (FIG. 3)."}}}
{"compound": "CCCCCC1=C/C(=C/c2[nH]c(-c3ccc[nH]3)cc2OC)N=C1C", "note": "[prodigiosin]", "values": [{"measurement": "mortality", "setting": "NOD mice [1]; NOD mice receiving prodigiosin", "value": "any mice were not found dead"}, {"measurement": "toxicity to kidney, liver and lung", "setting": "NOD mice [1]; NOD mice receiving prodigiosin", "value": "no toxicity to kidney, liver and lung"}, {"measurement": "body weight", "setting": "NOD mice [1]; NOD mice receiving prodigiosin from 8 to 24 weeks of age", "value": "didn't decrease"}, {"measurement": "toxicity to kidney (glomerulus and nephric tubule, pathological test)", "setting": "NOD mice [1]; NOD mice receiving prodigiosin from 8 to 24 weeks of age, hematoxylin/eosin staining", "value": "no toxicity to kidney"}, {"measurement": "lymphocyte infiltration", "setting": "NOD mice [2]; pancreas, hematoxylin/eosin staining", "value": "under 20%"}, {"measurement": "infiltration level (average insulitis progression score)", "setting": "NOD mice [2]; 1, 2, 3 point = 25, 50, 75% insulitis progression", "value": "about 1 point"}, {"measurement": "average blood glucose", "setting": "NOD mice [3]", "value": 100, "unit": "mg/dL"}]}
